Active and inactive are the calls of the source.
Assays:
Format in all cases: functional, cell-based
[1] = test system: MDA-MB-231; test: Cytotoxicity against human MDA-MB-231 cells assessed as reduction in cell viability at 40 uM measured after 72 hrs by MTS assay
[2] = test system: SK-HEP1; test: Cytotoxicity against human SK-HEP1 cells assessed as reduction in cell viability at 40 uM measured after 72 hrs by MTS assay
[3] = test system: SW480; test: Cytotoxicity against human SW480 cells assessed as reduction in cell viability at 40 uM measured after 72 hrs by MTS assay
[4] = test system: HCT-8; test: Cytotoxicity against human HCT-8 cells assessed as reduction in cell viability at 40 uM measured after 72 hrs by MTS assay
[5] = test system: RKO; test: Cytotoxicity against human RKO cells assessed as reduction in cell viability at 40 uM measured after 72 hrs by MTS assay
[6] = test system: MDA-MB-435; test: Cytotoxicity against human MDA-MB-435 cells assessed as reduction in cell viability at 40 uM measured after 72 hrs by MTS assay
[7] = test system: HCT-116; test: Cytotoxicity against human HCT-116 cells assessed as reduction in cell viability at 40 uM measured after 72 hrs by MTS assay
[8] = test system: KM12; test: Cytotoxicity against human KM12 cells assessed as reduction in cell viability at 40 uM measured after 72 hrs by MTS assay
[9] = test system: SW-620; test: Cytotoxicity against human SW-620 cells assessed as reduction in cell viability at 40 uM measured after 72 hrs by MTS assay
[10] = test system: HCC1428; test: Cytotoxicity against human HCC1428 cells assessed as reduction in cell viability at 40 uM measured after 72 hrs by MTS assay
[11] = test system: T47D; test: Cytotoxicity against human T47D cells assessed as reduction in cell viability at 40 uM measured after 72 hrs by MTS assay
[12] = test system: MDA-MB-468; test: Cytotoxicity against human MDA-MB-468 cells assessed as reduction in cell viability at 40 uM measured after 72 hrs by MTS assay
[13] = test system: SK-BR-3; test: Cytotoxicity against human SK-BR-3 cells assessed as reduction in cell viability at 40 uM measured after 72 hrs by MTS assay
[14] = test system: HCC38; test: Cytotoxicity against human HCC38 cells assessed as reduction in cell viability at 40 uM measured after 72 hrs by MTS assay
[15] = test system: BT-549; test: Cytotoxicity against human BT-549 cells assessed as reduction in cell viability at 40 uM measured after 72 hrs by MTS assay
[16] = test system: Hs-578T; test: Cytotoxicity against human Hs-578T cells assessed as reduction in cell viability at 40 uM measured after 72 hrs by MTS assay
[17] = test system: HCC70; test: Cytotoxicity against human HCC70 cells assessed as reduction in cell viability at 40 uM measured after 72 hrs by MTS assay
[18] = test system: COLO 205; test: Cytotoxicity against human COLO 205 cells assessed as reduction in cell viability at 40 uM measured after 72 hrs by MTS assay
[19] = test system: MCF7; test: Cytotoxicity against human MCF7 cells assessed as reduction in cell viability at 40 uM measured after 72 hrs by MTS assay

Measured: Activity

CC1=C[C@H](c2cc3ccc(=O)oc3cc2O[C@@H]2O[C@H](COC3OC[C@@H](O)[C@H](O)[C@H]3O)[C@@H](O)[C@H](O)[C@H]2O)[C@@](C)(/C=C/c2cc3ccc(=O)oc3cc2O[C@@H]2O[C@H](CO)[C@@H](O)[C@H](O)[C@H]2O)CC1 (some centres not stated)
inactive: [1] | [2] | [3] | [4] | [5] | [6] | [7] | [8] | [9] | [10] | [11] | [12] | [13] | [14] | [15] | [16] | [17] | [18] | [19]

CC1=C[C@@H](c2cc3ccc(=O)oc3cc2O[C@@H]2O[C@H](COC3OC[C@@H](O)[C@H](O)[C@H]3O)[C@@H](O)[C@H](O)[C@H]2O)[C@@](C)(/C=C/c2cc3ccc(=O)oc3cc2O[C@@H]2O[C@H](CO)[C@@H](O)[C@H](O)[C@H]2O)CC1 (some centres not stated)
inactive: [1] | [2] | [3] | [4] | [5] | [6] | [7] | [8] | [9] | [10] | [11] | [12] | [13] | [14] | [15] | [16] | [17] | [18] | [19]

CC1=C[C@H](c2cc3ccc(=O)oc3cc2O[C@@H]2O[C@H](CO)[C@@H](O)[C@H](O)[C@H]2O)[C@](C)(/C=C/c2cc3ccc(=O)oc3cc2O[C@@H]2O[C@H](COC3OC[C@@H](O)[C@H](O)[C@H]3O)[C@@H](O)[C@H](O)[C@H]2O)CC1 (some centres not stated)
inactive: [1] | [2] | [3] | [4] | [5] | [6] | [7] | [8] | [9] | [10] | [11] | [12] | [13] | [14] | [15] | [16] | [17] | [18] | [19]

CC1=C[C@@H](c2cc3ccc(=O)oc3cc2O[C@@H]2O[C@H](CO)[C@@H](O)[C@H](O)[C@H]2O)[C@@](C)(/C=C/c2cc3ccc(=O)oc3cc2O[C@@H]2O[C@H](CO[C@@H]3OC[C@](O)(CO)[C@H]3O)[C@@H](O)[C@H](O)[C@H]2O)CC1
inactive: [1] | [2] | [3] | [4] | [5] | [6] | [7] | [8] | [9] | [10] | [11] | [12] | [13] | [14] | [15] | [16] | [17] | [18] | [19]

CC1=C[C@H](c2cc3ccc(=O)oc3cc2O[C@@H]2O[C@H](CO)[C@@H](O)[C@H](O)[C@H]2O)[C@@](C)(/C=C/c2cc3ccc(=O)oc3cc2O[C@@H]2O[C@H](COC3OC[C@@H](O)[C@H](O)[C@H]3O)[C@@H](O)[C@H](O)[C@H]2O)CC1 (some centres not stated)
inactive: [1] | [2] | [3] | [4] | [5] | [6] | [7] | [8] | [9] | [10] | [11] | [12] | [13] | [14] | [15] | [16] | [17] | [18] | [19]

CC1=C[C@H](c2cc3ccc(=O)oc3cc2O[C@@H]2O[C@H](COC3OC[C@@H](O)[C@H](O)[C@H]3O)[C@@H](O)[C@H](O)[C@H]2O)[C@](C)(/C=C/c2cc3ccc(=O)oc3cc2O[C@@H]2O[C@H](COC3OC[C@@H](O)[C@H](O)[C@H]3O)[C@@H](O)[C@H](O)[C@H]2O)CC1 (some centres not stated)
inactive: [1] | [2] | [3] | [4] | [5] | [6] | [7] | [8] | [9] | [10] | [11] | [12] | [13] | [14] | [15] | [16] | [17] | [18] | [19]

CC1=C[C@@H](c2cc3ccc(=O)oc3cc2O[C@@H]2O[C@H](CO)[C@@H](O)[C@H](O)[C@H]2O)[C@@](C)(/C=C/c2cc3ccc(=O)oc3cc2O[C@@H]2O[C@H](CO)[C@@H](O)[C@H](O)[C@H]2O)CC1
inactive: [1] | [2] | [3] | [4] | [5] | [6] | [7] | [8] | [9] | [10] | [11] | [12] | [13] | [14] | [15] | [16] | [17] | [18] | [19]

CC1=C[C@H](c2cc3ccc(=O)oc3cc2O[C@@H]2O[C@H](CO[C@@H]3OC[C@](O)(CO)[C@H]3O)[C@@H](O)[C@H](O)[C@H]2O)[C@](C)(/C=C/c2cc3ccc(=O)oc3cc2O[C@@H]2O[C@H](CO)[C@@H](O)[C@H](O)[C@H]2O)CC1
inactive: [1] | [2] | [3] | [4] | [5] | [6] | [7] | [8] | [9] | [10] | [11] | [12] | [13] | [14] | [15] | [16] | [17] | [18] | [19]

Source: ChEMBL document CHEMBL4819021, “Paratrimerins J-Y, Dimeric Coumarins Isolated from the Stems of Paramignya trimera” (J Nat Prod, 2021)
